Drawing on patent US5519138A, “Phenylalkyl derivatives, with pharmaceutical activity” (Dr. Karl Thomae GmbH, priority 1991, dated 1996), this text covers IC50 for nine compounds.

As a reminder, the IC50 is the point on the concentration scale where inhibition reaches its midpoint.

SMILES strings stand for the structures. Where two headings read alike, the source gives them in different places.

For the assay, the target named is T1, Angiotensin II-receptor (Rattus norvegicus, UniProt P25095).
T1 construct: The tissue (rats lung) is homogenised in Tris-buffer; from tissue; host or cells: rat lung homogenate (washed 20,000x g pellet)
T1 sequence (P25095 1-359): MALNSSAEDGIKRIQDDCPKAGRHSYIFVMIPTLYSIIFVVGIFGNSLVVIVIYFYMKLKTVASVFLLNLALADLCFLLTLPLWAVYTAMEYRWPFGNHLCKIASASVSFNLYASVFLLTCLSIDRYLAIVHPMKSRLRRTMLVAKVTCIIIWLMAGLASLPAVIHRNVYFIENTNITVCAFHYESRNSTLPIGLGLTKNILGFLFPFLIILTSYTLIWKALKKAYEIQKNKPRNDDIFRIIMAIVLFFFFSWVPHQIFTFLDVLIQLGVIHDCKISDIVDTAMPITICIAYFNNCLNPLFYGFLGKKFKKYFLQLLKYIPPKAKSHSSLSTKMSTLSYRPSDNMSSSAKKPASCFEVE
Description: Angiotensin II-receptor bonding. Type of assay: binding. Here is the method: Description of method: Angiotensin II-receptor bonding
The tissue (rats lung) is homogenised in Tris-buffer (50 mMol Tris, 150 mMol NaCl, 5 mMol EDTA, pH 7.40) and centrifuged twice for 20 minutes at 20,000x g. The finished pellets are resuspended in incubating buffer (50 mMol Tris, 5 mMol MgCl2, 0.2% BSA, pH 7.40) 1:75, based on the moist weight of the tissue. Each 0.1 ml of homogenate is incubated for 60 minutes at 37° C. with 50 pM [^125 I]-angiotensin II (NEN, Dreieich, FRG) with increasing concentrations of the test substance in a total volume of 0.25 ml. Incubation is ended by rapid filtration through glass fibre filter mats. The filters are each washed with 4 ml of ice cold buffer (25 mMol Tris, 2.5 mMol MgCl2, 0.1% BSA, pH 7.40). The bound radioactivity is measured using a gamma-counter. The corresponding IC50 value is obtained from the dose-activity curve.
In the test described, substances A to I show the following IC50 values: […]

Setting [1] is: rats lung homogenate, 50 pM [^125 I]-angiotensin II, 60 minutes at 37° C., pH 7.40, read-out: IC50.

Consider `CCCc1nc2c(C)cccc2n1Cc1ccc(OC(C(=O)O)c2ccccc2)cc1` (stereo not drawn) [Substance A, 2-n-Propyl-4-methyl-1-[4-[(α-carboxy)benzyloxy]benzyl]benzimidazole], for which, under setting [1], the IC50 came out at 0.076 µM.

As for `CCCCc1nc2ccc(NC(=O)N(C)C)cc2n1Cc1ccc(OC(C(=O)O)c2ccccc2)cc1` (stereo not drawn) [Substance B, 2-n-Butyl-1-[4-[(α-carboxy)benzyloxy]benzyl]-6-dimethylaminocarbonylamino-benzimidazole], the IC50 under setting [1] worked out at 0.008 µM.

Take `CCCc1nc2c(C)cc(-c3nc4ccccc4n3C)cc2n1Cc1ccc(OC(C(=O)O)c2ccccc2)cc1` (stereo not drawn) [Substance C, 2-n-Propyl-6-(1-methyl-benzimidazol-2-yl)-4-methyl-1-[4-[(α-carboxy)benzyloxy]benzyl]benzimidazole]: under setting [1], the IC50 came to 0.004 µM.

Consider `Cc1cc(OCc2ccc(OC(C(=O)O)c3ccccc3)cc2)c2ccccc2n1` (stereo not drawn) [Substance D, 2-Methyl-4-[4'-[(α-carboxy)benzyloxy]benzyloxy]quinoline], for which the IC50 under setting [1] is 2 µM.

In the case of `CCCCc1nc2c(C)cccc2c(=O)n1Cc1ccc(OC(C(=O)O)c2ccccc2)cc1` (stereo not drawn) [Substance E, 2-n-Butyl-8-methyl-3-[4-[(α-carboxy)benzyloxy]benzyl]-quinazolin-4-one-semihydrate], under setting [1], the IC50 amounted to 2 µM.

Consider `CCCc1nc2c(C)cc(-c3nc4ccccc4n3C)cc2n1Cc1ccc(OC(c2ccccc2)c2nnn[nH]2)cc1` (stereo not drawn) [Substance F, 2-n-Propyl-4-methyl-6-(1-methyl-benzimidazol-2-yl)-1-[4-[α-(1H-tetrazol-5-yl)benzyloxy]benzyl]benzimidazole], for which the IC50 under setting [1] came out at 0.012 µM.

Take `CCCCc1nc2ccc(N(C)C(=O)CC)cc2n1Cc1ccc(OC(CC(C)C)C(=O)O)cc1` (stereo not drawn) [Substance G, 2-n-Butyl-6-(N-propionyl-methylamino)-1-[4-[(1-carboxy-3-methyl)butyloxy]benzyl]benzimidazole]: under setting [1], the half-inhibitory concentration (IC50) came to 0.83 µM.

Turning to `CCCCc1nc2cc(N3CCCN(Cc4ccccc4)C3=O)c(C)nc2n1Cc1ccc(OC(c2ccccc2)c2nnn[nH]2)cc1` (stereo not drawn) [Substance H, 2-n-Butyl-5-methyl-6-(3-benzyl-3,4,5,6-tetrahydro-2(1H)-pyrimidinon-1-yl)-3-[4-[α-(1H-tetrazol-5-yl)benzyloxy]benzyl]imidazo[4,5-b]pyridine], the IC50 under setting [1] was found to be 0.027 µM.

Consider `CCCCc1nc2ccccc2n1Cc1ccc(NC(c2ccccc2)P(=O)(O)OCC)cc1` (stereo not drawn) [Substance I, 2-n-Butyl-1-[4-[α-(O-ethyl-phosphono)benzylamino]benzyl]benzimidazole], for which inhibition was half-maximal at 0.56 µM (IC50).
